Measured values reported in patent US20260021059A1, “THERAPEUTIC COMBINATIONS AND METHODS” (RUTGERS, THE STATE UNIVERSITY OF NEW JERSEY, priority 2022, published 2026).
“Also recorded” adds a separate entry of the source.

Columns and labels:
rats [1] = assay: Palatable food intake (binge-like eating) of a fat/sucrose mixture during 30 min exposure periods; assay type: in vivo; conditions: for palatable food intake: N=12; for palatable food intake (binge-like eating): N=5
Protocol: Rats were trained to consume a palatable fat mixture (90% vegetable shortening, 10% sucrose) during brief exposure periods (30 mins) that occurred twice per week. The amount of palatable food consumed during these 30 min exposure periods was measured.

BED patients = conditions: daily LDX administration; cited from earlier work
rats [2] = assay: Sleep EEG/EMG telemetry recordings over the 12 hours inactive period; conditions: d-amphetamine alone 0.75 mg/kg i.p., 1 hr prior to onset of inactive period
rats [3] = assay: Locomotor activity / behavioral sensitization on repeated (7 d) dosing; assay type: in vivo; conditions: d-amphetamine alone 0.375 mg/kg i.p., 7 consecutive days; recorded 1 hour following treatment
Protocol: Rats were measured for baseline locomotor activity (Day 0). Rats then received injections of saline, d-amphetamine, or the combination of d-amphetamine and suvorexant, for 7 consecutive days. Locomotor activity was recorded for 1 hour following treatment.

Cc1ccc(-n2nccn2)c(C(=O)N2CCN(c3nc4cc(Cl)ccc4o3)CC[C@H]2C)c1 [suvorexant]
palatable food intake (rats [1]; suvorexant alone 10 mg/kg i.p. prior to test session): no significant change; also recorded: no effect

Cc1nc2ccc(NC(=O)Nc3ccnc4cccnc34)cc2o1 [SB334867]
palatable food intake (binge-like eating) (rats [1]; SB334867 alone 10 mg/kg i.p.): observed only at the highest dose; also recorded: A significant reduction was observed only at a high dose | palatable food intake (binge-like eating) (rats [1]; SB334867 alone 30 mg/kg i.p.): significant change; also recorded: significant reduction

C[C@@H](Cc1ccccc1)NC(=O)[C@@H](N)CCCCN [LDX, lisdexamfetamine]
binge frequency (BED patients): highly effective at reducing binge frequency | patients reporting complete binge cessation (BED patients): 35-50%

C[C@H](N)Cc1ccccc1 [d-amphetamine]
palatable food intake (rats [1]; d-amphetamine alone 0.1875 mg/kg i.p. prior to test session): no significant change; also recorded: no effect | palatable food intake (rats [1]; d-amphetamine alone 0.375 mg/kg i.p. prior to test session): no significant change; also recorded: no effect | total time in REM sleep compared to baseline (rats [2]): decreased | total time in active wake compared to baseline (rats [2]): increased | locomotor activity (behavioral reactivity) (rats [3]): significantly higher; also recorded: increased locomotor activity
